Reference: PubChem BioAssay AID248 (DTP/NCI, 2004)
Toxic doses and inconclusive results are not listed.

Tested on: L1210 leukemia ip in BDF1 mice, survival T/C
Assay: NCI In Vivo Anticancer Drug Screen. Data for tumor model L1210 Leukemia (intraperitoneal) in B6D2F1 (BDF1) mice
Settings: higher = longer survival
Summary of the method: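 Survival endpoint. Drug-treated group vs vehicle group, expressed as T divided by C. Tumor passaged by transplantation.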

[1] = endpoint: mean survival time, dose: 100.0 mg/kg/injection, schedule: Q04DX003 (ip), vehicle: saline
[2] = endpoint: mean survival time, dose: 200.0 mg/kg/injection, schedule: Q04DX003 (ip), vehicle: saline
[3] = endpoint: mean survival time, dose: 100.0 mg/kg/injection, schedule: Q01DX009 (ip), vehicle: Klucel (hydroxypropylcellulose) (HPC)
[4] = endpoint: mean survival time, dose: 100.0 mg/kg/injection, schedule: Q04DX003 (ip), vehicle: Klucel (hydroxypropylcellulose) (HPC)
[5] = endpoint: mean survival time, dose: 200.0 mg/kg/injection, schedule: Q01DX009 (ip), vehicle: Klucel (hydroxypropylcellulose) (HPC)
[6] = endpoint: mean survival time, dose: 200.0 mg/kg/injection, schedule: Q04DX003 (ip), vehicle: Klucel (hydroxypropylcellulose) (HPC)
[7] = endpoint: mean survival time, dose: 400.0 mg/kg/injection, schedule: Q01DX009 (ip), vehicle: Klucel (hydroxypropylcellulose) (HPC)
[8] = endpoint: mean survival time, dose: 400.0 mg/kg/injection, schedule: Q04DX003 (ip), vehicle: Klucel (hydroxypropylcellulose) (HPC)
[9] = endpoint: mean survival time, dose: 100.0 mg/kg/injection, schedule: Q01DX001 (ip), vehicle: saline
[10] = endpoint: mean survival time, dose: 200.0 mg/kg/injection, schedule: Q01DX001 (ip), vehicle: saline
[11] = endpoint: mean survival time, dose: 400.0 mg/kg/injection, schedule: Q01DX001 (ip), vehicle: saline
[12] = endpoint: mean survival time, dose: 100.0 mg/kg/injection, schedule: Q01DX001 (ip), vehicle: carboxymethylcellulose (CMC)
[13] = endpoint: mean survival time, dose: 200.0 mg/kg/injection, schedule: Q01DX001 (ip), vehicle: carboxymethylcellulose (CMC)
[14] = endpoint: mean survival time, dose: 400.0 mg/kg/injection, schedule: Q01DX001 (ip), vehicle: carboxymethylcellulose (CMC)

For `C[C@H](CN1CC(=O)NC(=O)C1)N1CC(=O)NC(=O)C1`, the T/C (endpoint: mean survival time, dose: 25.0 mg/kg/injection, schedule: Q04DX003 (ip), vehicle: saline) was 124 % of control, the T/C (endpoint: mean survival time, dose: 25.0 mg/kg/injection, schedule: Q04DX003 (ip), vehicle: water) was 104 % of control and the T/C (endpoint: mean survival time, dose: 50.0 mg/kg/injection, schedule: Q04DX003 (ip), vehicle: saline) was 117 % of control. For the same compound, the T/C (endpoint: mean survival time, dose: 50.0 mg/kg/injection, schedule: Q04DX003 (ip), vehicle: water) was 110 % of control, the T/C [1] was 117 % of control and the T/C [2] was 158 % of control. For the same compound, the T/C (endpoint: mean survival time, dose: 200.0 mg/kg/injection, schedule: Q04DX003 (ip), vehicle: water) was 152 % of control, the T/C (endpoint: mean survival time, dose: 400.0 mg/kg/injection, schedule: Q04DX003 (ip), vehicle: saline) was 182 % of control and the T/C (endpoint: mean survival time, dose: 400.0 mg/kg/injection, schedule: Q04DX003 (ip), vehicle: water) was 184 % of control. The T/C (endpoint: mean survival time, dose: 800.0 mg/kg/injection, schedule: Q04DX003 (ip), vehicle: saline) was 187 % of control, the T/C (endpoint: mean survival time, dose: 800.0 mg/kg/injection, schedule: Q04DX003 (ip), vehicle: water) was 107 % of control and the T/C (endpoint: median survival time, dose: 8.0 mg/kg/injection, schedule: Q03HX008 (ip), vehicle: saline) was 153 % of control. The T/C (endpoint: median survival time, dose: 8.0 mg/kg/injection, schedule: Q03HX016 (ip), vehicle: saline) was 204 % of control, the T/C (endpoint: median survival time, dose: 16.0 mg/kg/injection, schedule: Q01DX009 (sc), vehicle: saline) was 152 % of control and the T/C (endpoint: median survival time, dose: 16.0 mg/kg/injection, schedule: Q03HX008 (ip), vehicle: saline) was 163 % of control. The T/C (endpoint: median survival time, dose: 16.0 mg/kg/injection, schedule: Q03HX016 (ip), vehicle: saline) was 203 % of control, the T/C (endpoint: median survival time, dose: 16.0 mg/kg/injection, schedule: Q03HX024 (ip), vehicle: saline) was 98 % of control and the T/C (endpoint: median survival time, dose: 32.0 mg/kg/injection, schedule: Q01DX009 (sc), vehicle: saline) was 156 % of control. For the same compound, the T/C (endpoint: median survival time, dose: 32.0 mg/kg/injection, schedule: Q03HX008 (ip), vehicle: saline) was 160 % of control, the T/C (endpoint: median survival time, dose: 32.0 mg/kg/injection, schedule: Q03HX024 (ip), vehicle: saline) was 94 % of control and the T/C (endpoint: median survival time, dose: 64.0 mg/kg/injection, schedule: Q01DX001 (ip), vehicle: saline) was 102 % of control. The T/C (endpoint: median survival time, dose: 64.0 mg/kg/injection, schedule: Q01DX009 (sc), vehicle: saline) was 110 % of control, the T/C (endpoint: median survival time, dose: 64.0 mg/kg/injection, schedule: Q04DX003 (ip), vehicle: saline) was 108 % of control and the T/C (endpoint: median survival time, dose: 64.0 mg/kg/injection, schedule: Q04DX003 (sc), vehicle: saline) was 121 % of control. The T/C (endpoint: median survival time, dose: 64.0 mg/kg/injection, schedule: Q08DX002 (ip), vehicle: saline) was 109 % of control, the T/C (endpoint: median survival time, dose: 128.0 mg/kg/injection, schedule: Q01DX001 (ip), vehicle: saline) was 107 % of control and the T/C (endpoint: median survival time, dose: 128.0 mg/kg/injection, schedule: Q01DX009 (sc), vehicle: saline) was 93 % of control. The T/C (endpoint: median survival time, dose: 128.0 mg/kg/injection, schedule: Q03HX008 (ip), vehicle: saline) was 152 % of control, the T/C (endpoint: median survival time, dose: 128.0 mg/kg/injection, schedule: Q04DX003 (ip), vehicle: saline) was 124 % of control and the T/C (endpoint: median survival time, dose: 128.0 mg/kg/injection, schedule: Q08DX002 (ip), vehicle: saline) was 107 % of control. For the same compound, the T/C (endpoint: median survival time, dose: 256.0 mg/kg/injection, schedule: Q01DX001 (ip), vehicle: saline) was 109 % of control, the T/C (endpoint: median survival time, dose: 256.0 mg/kg/injection, schedule: Q04DX003 (sc), vehicle: saline) was 172 % of control and the T/C (endpoint: median survival time, dose: 512.0 mg/kg/injection, schedule: Q01DX001 (ip), vehicle: saline) was 120 % of control. For the same compound, the T/C (endpoint: median survival time, dose: 512.0 mg/kg/injection, schedule: Q04DX003 (ip), vehicle: saline) was 157 % of control, the T/C (endpoint: median survival time, dose: 512.0 mg/kg/injection, schedule: Q04DX003 (sc), vehicle: saline) was 202 % of control and the T/C (endpoint: median survival time, dose: 512.0 mg/kg/injection, schedule: Q08DX002 (ip), vehicle: saline) was 121 % of control. The T/C (endpoint: median survival time, dose: 1024.0 mg/kg/injection, schedule: Q04DX003 (ip), vehicle: saline) was 193 % of control, the T/C (endpoint: median survival time, dose: 1024.0 mg/kg/injection, schedule: Q04DX003 (sc), vehicle: saline) was 180 % of control and the T/C (endpoint: median survival time, dose: 1024.0 mg/kg/injection, schedule: Q08DX002 (ip), vehicle: saline) was 179 % of control.
With `COc1ccc(Br)c(CCC(C)C)c1OC` the T/C [3] was 92 % of control, the T/C [4] was 108 % of control and the T/C [5] was 95 % of control. The T/C [6] was 108 % of control, the T/C [7] was 101 % of control and the T/C [8] was 104 % of control.
For `Cc1cc2c(c3[nH]c4ccccc4c13)C(=O)c1ccccc1C2=O`, the T/C [9] was 102 % of control, the T/C [10] was 95 % of control and the T/C [11] was 102 % of control.
For `ClB(Cl)c1ccccc1`, the T/C [9] was 92 % of control, the T/C [10] was 92 % of control and the T/C [11] was 101 % of control.
With `CC(=O)N(C)c1cc([N+](=O)[O-])ccc1OCc1ccccc1` the T/C (endpoint: mean survival time, dose: 50.0 mg/kg/injection, schedule: Q01DX001 (ip), vehicle: saline) was 102 % of control and the T/C [9] was 96 % of control.
With `[N-]=[N+]=Nc1ccc(S(N)(=O)=O)cc1` the T/C [9] was 99 % of control, the T/C [10] was 94 % of control and the T/C [11] was 93 % of control.
For `Cc1cc(N(CCCl)CCCl)ccc1C=Nc1cc(Br)cc(Br)c1`, the T/C [12] was 101 % of control, the T/C [13] was 110 % of control and the T/C [14] was 108 % of control.
With `CC(=O)NC(C)CC(C)C` (stereo not given) the T/C [1] was 113 % of control and the T/C [2] was 103 % of control.
`Cc1cc2ccccc2cc1C` was tested, and the T/C (endpoint: mean survival time, dose: 25.0 mg/kg/injection, schedule: Q04DX002 (ip), vehicle: other) was 102 % of control, the T/C (endpoint: mean survival time, dose: 25.0 mg/kg/injection, schedule: Q04DX002 (ip), vehicle: saline with Tween-80) was 119 % of control and the T/C (endpoint: mean survival time, dose: 50.0 mg/kg/injection, schedule: Q04DX002 (ip), vehicle: saline with Tween-80) was 101 % of control. For the same compound, the T/C (endpoint: mean survival time, dose: 100.0 mg/kg/injection, schedule: Q04DX002 (ip), vehicle: other) was 94 % of control and the T/C (endpoint: mean survival time, dose: 100.0 mg/kg/injection, schedule: Q04DX002 (ip), vehicle: saline with Tween-80) was 111 % of control.
For `CC(C)(C)C1CCC(OS(C)(=O)=O)C(OS(C)(=O)=O)C1` (stereo not given), the T/C (endpoint: mean survival time, dose: 12.5 mg/kg/injection, schedule: Q04DX003 (ip), vehicle: Klucel (hydroxypropylcellulose) (HPC)) was 102 % of control and the T/C (endpoint: mean survival time, dose: 25.0 mg/kg/injection, schedule: Q04DX003 (ip), vehicle: Klucel (hydroxypropylcellulose) (HPC)) was 100 % of control.
For `CCC(=CCC1=C(O)c2ccccc2C(=O)C1=O)CC`, the T/C (endpoint: mean survival time, dose: 25.0 mg/kg/injection, schedule: Q01DX009 (ip), vehicle: water) was 120 % of control, the T/C (endpoint: mean survival time, dose: 50.0 mg/kg/injection, schedule: Q01DX009 (ip), vehicle: water) was 97 % of control and the T/C (endpoint: mean survival time, dose: 100.0 mg/kg/injection, schedule: Q01DX001 (ip), vehicle: water) was 103 % of control. For the same compound, the T/C (endpoint: mean survival time, dose: 100.0 mg/kg/injection, schedule: Q01DX009 (ip), vehicle: water) was 100 % of control and the T/C (endpoint: mean survival time, dose: 200.0 mg/kg/injection, schedule: Q01DX009 (ip), vehicle: water) was 94 % of control.
In the case of `O=c1c2ccccc2nc(-c2ccccc2)n1O`, the T/C [4] is reported as 103 % of control, the T/C [6] is reported as 106 % of control and the T/C [8] is reported as 91 % of control.
For `ClCC1(CCl)COC(c2ccccc2)OC1`, the T/C (endpoint: mean survival time, dose: 100.0 mg/kg/injection, schedule: Q04DX003 (ip), vehicle: saline with Tween-80) was 95 % of control, the T/C (endpoint: mean survival time, dose: 200.0 mg/kg/injection, schedule: Q04DX003 (ip), vehicle: saline with Tween-80) was 93 % of control and the T/C (endpoint: mean survival time, dose: 400.0 mg/kg/injection, schedule: Q04DX003 (ip), vehicle: saline with Tween-80) was 92 % of control.
In the case of `O=C(O)c1cccc([N+](=O)[O-])c1I`, the T/C (endpoint: mean survival time, dose: 100.0 mg/kg/injection, schedule: Q01DX009 (ip), vehicle: saline with Tween-80) is reported as 100 % of control, the T/C (endpoint: mean survival time, dose: 200.0 mg/kg/injection, schedule: Q01DX009 (ip), vehicle: saline with Tween-80) is reported as 101 % of control and the T/C (endpoint: mean survival time, dose: 400.0 mg/kg/injection, schedule: Q01DX009 (ip), vehicle: saline with Tween-80) is reported as 97 % of control.
For `O=C(c1ccccc1)C1(Br)CCCCC1`, the T/C [3] was 96 % of control, the T/C (endpoint: mean survival time, dose: 100.0 mg/kg/injection, schedule: Q01DX009 (ip), vehicle: saline) was 95 % of control and the T/C [5] was 96 % of control. For the same compound, the T/C [7] was 93 % of control and the T/C (endpoint: mean survival time, dose: 400.0 mg/kg/injection, schedule: Q01DX009 (ip), vehicle: saline) was 101 % of control.
With `Cc1cc(NC(=O)c2ccccc2)c(C)cc1N` the T/C [12] was 92 % of control, the T/C [13] was 99 % of control and the T/C [14] was 101 % of control.
